# Assay results taken from paper PMC4182091, “A Common Minimal Motif for the Ligands of HLA-B*27 Class I Molecules” (PLoS ONE, 2014).
# Where two headings read alike, the source gives them in different places. Ends that are not written are not given here.
# Legend:
# Type in all cases: cell-based
# [1] = target: HLA-B*2704 (Homo sapiens, UniProt P01889, A235G/D138H/D201E/E204Q/G107R/H137Y/K202T/N104T/N87E/Q56L/Q94K/R106L/R155S/R180L/S121N/S48T/Y140D/Y33H/Y91C); test: HLA/peptide complex stability assay, RMA-S cells transfected with HLA-B*2704; details: for fluorescence index, B*2704: peptide 200 µM
# [2] = target: T1, HLA-B*2705 (Homo sapiens, UniProt P01889, D138H/D201E/E176V/E204Q/G107R/H137Y/K202T/N104T/N87E/Q56L/Q94K/R106L/R155S/R180L/S101D/S121N/S48T/Y140D/Y33H/Y91C); test: HLA/peptide complex stability assay, RMA-S cells transfected with HLA-B*2705; details: for fluorescence index, B*2705: peptide 200 µM
# T1 construct: expressed in transfected cells; host or cells: RMA-S (TAP-deficient murine cell line)
# [3] = target: T2, HLA-B*2706 (Homo sapiens, UniProt P01889, A235G/D201E/E204Q/G107R/H137Y/K202T/N104T/N87E/Q56L/Q94K/R106L/R155S/R180L/S121N/S48T/Y33H/Y91C); test: HLA/peptide complex stability assay, RMA-S cells transfected with HLA-B*2706; details: for fluorescence index, B*2706: peptide 200 µM
# T2 construct: expressed in transfected cells; host or cells: RMA-S (TAP-deficient murine cell line)
# [4] = target: HLA-B*2702 (Homo sapiens, UniProt P01889, D138H/D201E/E176V/E204Q/G107R/H137Y/K202T/L105A/N104I/N87E/Q56L/Q94K/R106L/R155S/R180L/S101N/S121N/S48T/Y140D/Y33H/Y91C); test: HLA/peptide complex stability assay, RMA-S cells transfected with HLA-B*2702; details: for fluorescence index, B*2702: peptide 200 µM
# [5] = target: T3, HLA-B*2709 (Homo sapiens, UniProt P01889, D138H/D201E/E176V/E204Q/G107R/H137Y/K202T/N104T/N87E/Q56L/Q94K/R106L/R155S/R180L/S101D/S121N/S48T/Y140H/Y33H/Y91C); test: HLA/peptide complex stability assay, RMA-S cells transfected with HLA-B*2709; details: for fluorescence index, B*2709: peptide 200 µM
# T3 construct: expressed in transfected cells; host or cells: RMA-S (TAP-deficient murine cell line)
# [6] = target: T4, HLA-B*2701 (Homo sapiens, UniProt P01889, D138H/D201E/D98Y/E176V/E204Q/G107R/H137Y/K202T/L105A/N104T/N87E/Q56L/Q94K/R106L/R155S/R180L/S101N/S121N/S48T/Y140D/Y33H/Y91C); test: HLA/peptide complex stability assay, RMA-S cells transfected with HLA-B*2701; details: for fluorescence index, B*2701: peptide 200 µM
# T4 construct: expressed in transfected cells; host or cells: RMA-S (TAP-deficient murine cell line)
# [7] = target: T5, HLA-B*2703 (Homo sapiens, UniProt P01889, D138H/D201E/E176V/E204Q/G107R/H137Y/K202T/N104T/N87E/Q56L/Q94K/R106L/R155S/R180L/S101D/S121N/S48T/Y140D/Y33H/Y83H/Y91C); test: HLA/peptide complex stability assay, RMA-S cells transfected with HLA-B*2703; details: for fluorescence index, B*2703: peptide 200 µM
# T5 construct: expressed in transfected cells; host or cells: RMA-S (TAP-deficient murine cell line)
# [8] = relative affinity (EC50 class), B*2704
# [9] = relative affinity (EC50 class), B*2705
# [10] = relative affinity (EC50 class), B*2702
# [11] = relative affinity (EC50 class), B*2701
# [12] = relative affinity (EC50 class), B*2703
# [13] = […], mean ± S.D. of three to five independent experiments, SD
# [14] = Table 1, transfected RMA-S cells, 2 h 26°C then 2 h 37°C, ME1 mAb, flow cytometry, ratio to control without peptide, mean ± S.D. of three to five independent experiments, SD
# [15] = Table 4, monosubstituted Ala analogs, transfected RMA-S cells, flow cytometry, mean ± S.D. of three to five independent experiments, SD
sequence,measurement,setting,value
LRNEESEKMAK [P 198-208],EC50,"[1]; read-out: EC50, B*2704",> 200 µM
same,EC50,[1]; [8],> 200 µM
same,"relative MHC class I affinity according to the EC50 value, in words (high, medium, low)",[2],low affinity
same,EC50,"[2]; EC50, B*2705, SD",98 ± 35 µM
same,EC50,[2]; [9],61 to 200 µM
same,EC50,"[3]; EC50, B*2706",> 200 µM
same,EC50,"[3]; relative affinity (EC50 class), B*2706",> 200 µM
same,EC50,"[4]; read-out: EC50, B*2702",> 200 µM
same,EC50,[4]; [10],> 200 µM
same,EC50,"[5]; EC50, B*2709, SD",86 ± 12 µM
same,EC50,"[5]; relative affinity (EC50 class), B*2709",61 to 200 µM
same,EC50,"[6]; read-out: EC50, B*2701",> 200 µM
same,EC50,[6]; [11],> 200 µM
same,EC50,"[7]; EC50, B*2703",> 200 µM
same,EC50,[7]; [12],> 200 µM
RRAAAAAAAI [RRA7I],EC50,[1]; SD,7 ± 2 µM
same,EC50,[2]; SD,4 ± 3 µM
same,EC50,[3]; SD,2 ± 1 µM
same,EC50,"[4]; EC50, B*2702, SD",28 ± 16 µM
same,EC50,"[4]; read-out: relative affinity (EC50 class), B*2702",20 to 60 µM
same,EC50,"[5]; EC50, B*2709, SD",2 ± 1 µM
same,EC50,[6]; SD,7 ± 2 µM
same,EC50,"[7]; EC50, B*2703, SD",7 ± 5 µM
"RRANNVLKNEA [A11-NP 184-194, monosubstituted Ala analog of HRSV NP 184-194, […]]","fluorescence index, B*2704",[1]; [13],2.0±0.2
same,"fluorescence index, B*2705",[2]; [13],2.1±0.1
same,"fluorescence index, B*2706",[3]; [13],2.7±0.2
same,"fluorescence index, B*2702",[4]; [13],1.7±0.1
same,"fluorescence index, B*2709",[5]; [13],1.8±0.1
same,"fluorescence index, B*2701",[6]; [13],1.1±0.1
same,"fluorescence index, B*2703",[7]; [13],1.7±0.2
RRANNVLKNEM [NP 184-194],EC50,"[1]; EC50, B*2704, SD",19 ± 10 µM
same,"relative MHC class I affinity according to the EC50 value, in words (high, medium, low)",[2],high
same,EC50,"[2]; EC50, B*2705, SD",20 ± 8 µM
same,EC50,"[3]; EC50, B*2706, SD",2 ± 1 µM
same,EC50,"[4]; EC50, B*2702, SD",43 ± 27 µM
same,EC50,[4]; [10],20 to 60 µM
same,EC50,"[5]; EC50, B*2709, SD",7 ± 1 µM
same,EC50,"[6]; EC50, B*2701, SD",39 ± 9 µM
same,EC50,[6]; [11],20 to 60 µM
same,EC50,"[7]; EC50, B*2703, SD",60 ± 29 µM
same,EC50,[7]; [12],20 to 60 µM
"RRYPDAVYL [MV F 438-466, reference compound]",EC50,"[1]; Table 2, peptide concentration at 50% of maximum fluorescence, range 0.01–200 µM, transfected RMA-S cells, flow cytometry, mean ± S.D. of three to five independent experiments, - = no statistical difference in fluorescence index to negative control, SD, read-out: EC50, B*2704",18 ± 4 µM
same,EC50,"[2]; Table 2, peptide concentration at 50% of maximum fluorescence, range 0.01–200 µM, transfected RMA-S cells, flow cytometry, mean ± S.D. of three to five independent experiments, - = no statistical difference in fluorescence index to negative control, SD, read-out: EC50, B*2705",3 ± 2 µM
same,EC50,"[3]; Table 2, peptide concentration at 50% of maximum fluorescence, range 0.01–200 µM, transfected RMA-S cells, flow cytometry, mean ± S.D. of three to five independent experiments, - = no statistical difference in fluorescence index to negative control, SD, read-out: EC50, B*2706",2 ± 1 µM
same,EC50,"[4]; Table 2, peptide concentration at 50% of maximum fluorescence, range 0.01–200 µM, transfected RMA-S cells, flow cytometry, mean ± S.D. of three to five independent experiments, - = no statistical difference in fluorescence index to negative control, SD, read-out: EC50, B*2702",11 ± 4 µM
same,EC50,"[5]; Table 2, peptide concentration at 50% of maximum fluorescence, range 0.01–200 µM, transfected RMA-S cells, flow cytometry, mean ± S.D. of three to five independent experiments, - = no statistical difference in fluorescence index to negative control, SD, read-out: EC50, B*2709",4 ± 1 µM
same,EC50,"[6]; Table 2, peptide concentration at 50% of maximum fluorescence, range 0.01–200 µM, transfected RMA-S cells, flow cytometry, mean ± S.D. of three to five independent experiments, - = no statistical difference in fluorescence index to negative control, SD, read-out: EC50, B*2701",5 ± 2 µM
same,EC50,"[7]; Table 2, peptide concentration at 50% of maximum fluorescence, range 0.01–200 µM, transfected RMA-S cells, flow cytometry, mean ± S.D. of three to five independent experiments, - = no statistical difference in fluorescence index to negative control, SD, read-out: EC50, B*2703",4 ± 3 µM
SRSALLAQM [M 76-84],EC50,"[1]; EC50, B*2704, SD",15 ± 6 µM
same,"relative MHC class I affinity according to the EC50 value, in words (high, medium, low)",[2],high
same,EC50,"[2]; EC50, B*2705, SD",5 ± 5 µM
same,EC50,"[3]; EC50, B*2706, SD",1 ± 1 µM
same,EC50,"[4]; EC50, B*2702",> 200 µM
same,EC50,[4]; [10],> 200 µM
same,EC50,"[5]; EC50, B*2709, SD",6 ± 2 µM
same,EC50,"[6]; EC50, B*2701, SD",15 ± 11 µM
same,EC50,"[7]; EC50, B*2703, SD",6 ± 3 µM
"VAFTSHEHF [CMV pp65, reference compound]","fluorescence index, B*2704",[1]; [14],1.0±0.1
same,"fluorescence index, B*2704",[1]; [15],1.0±0.1
same,"fluorescence index, B*2705",[2]; [14],1.0±0.1
same,"fluorescence index, B*2705",[2]; [15],1.0±0.1
same,"fluorescence index, B*2706",[3]; [14],1.0±0.1
same,"fluorescence index, B*2706",[3]; [15],1.0±0.1
same,"fluorescence index, B*2702",[4]; [14],1.0±0.1
same,"fluorescence index, B*2702",[4]; [15],1.0±0.1
same,"fluorescence index, B*2709",[5]; [14],1.1±0.1
same,"fluorescence index, B*2709",[5]; [15],1.1±0.1
same,"fluorescence index, B*2701",[6]; [14],1.0±0.1
same,"fluorescence index, B*2701",[6]; [15],1.0±0.1
same,"fluorescence index, B*2703",[7]; [14],1.0±0.1
same,"fluorescence index, B*2703",[7]; [15],1.0±0.1
VRNKDLNTL [M 169-177],EC50,"[1]; EC50, B*2704, SD",56 ± 16 µM
same,EC50,[1]; [8],20 to 60 µM
same,"relative MHC class I affinity according to the EC50 value, in words (high, medium, low)",[2],low affinity
same,EC50,"[2]; read-out: EC50, B*2705, SD",82 ± 20 µM
same,EC50,[2]; [9],61 to 200 µM
same,EC50,"[3]; EC50, B*2706, SD",3 ± 1 µM
same,EC50,"[4]; EC50, B*2702, SD",94 ± 25 µM
same,EC50,[4]; [10],61 to 200 µM
same,EC50,"[5]; EC50, B*2709, SD",19 ± 7 µM
same,EC50,"[6]; EC50, B*2701",> 200 µM
same,EC50,[6]; [11],> 200 µM
same,EC50,"[7]; EC50, B*2703",> 200 µM
same,EC50,[7]; [12],> 200 µM
